SMILES strings stand for the structures.

This note sets out measurements from ChEMBL document CHEMBL1154244, “Isoflavonoids from Erythrina poeppigiana: evaluation of their binding affinity for the estrogen receptor” (J Nat Prod, 2009).

The species entered for this assay is Homo sapiens. Description: Selectivity ratio of IC50 for human recombinant ERalpha to IC50 for human recombinant ERbeta.
Regarding `CC(C)=CCc1cc(-c2coc3cc(O)cc(O)c3c2=O)ccc1O`, the Ratio IC50 stood at 0.6.

On to `COc1cc(O)c2c(=O)c(-c3cc4c(cc3O)OC(C)(C)C(O)C4)coc2c1` (stereo not drawn), for which the Ratio IC50 turned out to be 16.

For `CCCc1c(-c2ccc(O)cc2)nn(-c2ccc(O)cc2)c1-c1ccc(O)cc1`, the Ratio IC50 came out at 36.

For the molecule `COc1cc(O)c2c(=O)c(-c3cc(CC=C(C)C)c(O)cc3O)coc2c1`, the Ratio IC50 is 0.7.

For `CC1(C)C=Cc2c(cc3occ(-c4ccc(O)cc4)c(=O)c3c2O)O1`, the Ratio IC50 was determined as 0.7.

As for `COc1cc(O)c2c(=O)c(-c3ccc(O)c(CC(O)=C(C)C)c3)coc2c1`, the Ratio IC50 is 2.3.

In the case of `CC(C)=CCc1c(O)cc2occ(-c3ccc(O)cc3)c(=O)c2c1O`, the Ratio IC50 was 0.6.

As for `COc1ccc2c(c1CC=C(C)C)O[C@H]1c3ccc(O)cc3OC[C@@]21O`, the Ratio IC50 was found to be 2.2.
